# Data: patent US20250144227A1, “C-16 MODIFIED TRIOXACARCINS, ANTIBODY DRUG CONJUGATES, AND USES THEREOF” (President and Fellows of Harvard College, priority 2021, published 2025)
# Like-named read-outs stand apart in the source and are kept apart here.
# What was measured:
# MES-SA/Dx-5 cells = experiment: Cell proliferation assay (resazurin, CellTiter-Blue), MES-SA/Dx-5 cells; type: cell-based; details: Homo sapiens
# Experimental: (§1) Cell Culture: All cell-culture work was conducted in a class II biological safety cabinet. H460 cells (P2-P4, American Type Culture Collection) were maintained in RPMI-1640 medium supplemented with 10% fetal bovine serum (FBS). HL-60 cells (P2-P4, American Type Cuture Collection) were maintained in RPMI-1640 medium supplemented with 10% FBS. MES-SA/Dx-5 cells (P2-P4, European Collection of Authenticated Cell Cultures) were maintained in McCoy's 5A medium supplemented with 10% FBS.
# (§2) Cell Proliferation Assay: H460 and MES-SA/Dx-5 cells were grown to approximately 80% confluence, and then were trpysinized, collected, and pelleted by centrifugation (10 min at 183 x g, 24° C.), and HL-60 cells were grown to confluence and directly pelleted by centrifugation (10 min at 183 × g, 24° C.). The supernatant was discarded and the cell pellet was resuspended in 10 mL of fresh medium. A sample was diluted 10-fold in fresh medium, and the concentration of cells was determined using a hemacytometer. The cell suspension was diluted to a concentration of 3000 cells/100 μL. The wells of a pre-sterilized 96-well plate were charged with 100 μL per well of the diluted cellular suspension. The plate was incubated for 24 h at 37° C. (5% CO2).
# (§3) Stock solutions of each compound in DMSO were diluted with the appropriate media to 100 nM solutions (1% DMSO), which were then serially diluted with the appropriate media, and 100-uL aliquots of the resulting solutions were added to the wells containing adhered cells to achieve final concentrations of 0.39 nM to 50 nM. After incubating at 37° C. for 72 h (5% CO2), 20 μL of resazurin solution (Promega CellTiter-Blue® Cell Viability Assay) was added to each well. After incubating at 37° C. for 2.0 h (5% CO2), the fluorescence (544 nm excitation/590 nm emission) was recorded using a microplate reader (SpectraMax PLUS384) as a measure of viable cells.
# (§4) Percent growth inhibition was calculated for each well, based upon the following formula: Percent growth inhibition=100×(S−B0)/(Bt−B0) where S is the sample fluorescence, Bt is the average fluorescence of an untreated population of cells at the completion of the assay, and B0 is the average fluorescence of an untreated population of cells at the beginning of the assay.
# (§5) Each compound was assayed at eight separate concentrations per experiment. The percent inhibition at each concentration was plotted against log (concentration), and a curve fit was generated using the XLfit4 plugin (IDBS Software) running in Excel (Microsoft). GI50 values were computed to reflect the concentrations at which the resulting curves pass through 50% inhibition.
# [1] = 1H NMR studies of decomposition of the C16 thiol; type: physicochemical; details: on an hour time scale
# H460 cells = experiment: Cell proliferation assay (resazurin, CellTiter-Blue), H460 cells; type: cell-based; details: for GI50: Homo sapiens, NCI-H460, 72 h; for Effect of the C16 modification on potency (in words): comment on the data of Table 2 (H460 cells)
# Experimental: as §1, §2, §3, §4, §5
# [2] = Drug-linker stability assay (LC-MS); type: physicochemical; details: after 1 week, physiologically relevant pH and temperature (37 C)
# Experimental: Stability Assay: In a 1.5 mL screw-top conical plastic vial, 42 (FIG. 1A) or 39 (FIG. 1B) was dissolved in 270 μL of DMSO (5 mM). 12 μL of this DMSO drug-linker solution was mixed with 576 μL pH 5.0 sodium acetate buffer (50 mM sodium acetate, 100 mM NaCl, 4 mM EDTA). 1-naphthalene acetic acid in DMSO (12 μL, 5 mM, 1 equiv.) was added as an internal standard. The vial was then placed in a heating block at 37 C and protected from direct light. 25 μL aliquots of the reaction mixture were removed at 0 h, 4 h, 24 h, 48 h, 72 h, and 1 week and analyzed by LC-MS. LC-MS peaks were integrated using Agilent OpenLab ChemStation and the areas of each peak were normalized to 1-napthalene acetic acid at 280 nM. Percent drug-linker remaining is defined as the normalized peak area at a given time point divided by the normalized peak area at 0 hours x 100%. Each assay was also performed at pH 7.4 (phosphate-buffered solution, Corning), and assays at each pH value were performed with and without the addition of 8 mM N-acetylcysteine.
# cathepsin B = molecular target: T1, cathepsin B (Homo sapiens, UniProt P07858); experiment: Drug-linker release assay with cathepsin B (LC-MS); type: in vitro ADME; details: cathepsin B enzyme solution in buffer; cathepsin B added, pH 5.0 sodium acetate buffer, 37 C; read-out: Half-life of liberation of the C16 primary amine warhead
# T1 construct: purchased Enzo Life Sciences
# Experimental: Release Assay: In a 1.5 mL screw-top conical plastic vial, 42 was dissolved in 270 μL of DMSO (5 mM). 12 μL of this DMSO drug-linker solution was mixed with a DMSO solution of N-acetylcysteine (10 mM, 12 μL, 2 equiv.). To the solution was then added 510 μL pH 5.0 sodium acetate buffer (50 mM sodium acetate, 100 mM NaCl, 4 mM EDTA, 8 mM N-acetylcysteine). 1—Naphthalene acetic acid in DMSO (12 μL, 5 mM, 1 equiv.) was added as an internal standard. The vial was then placed in a heating block at 37 C for 30 minutes. After 30 minutes, 54 μL of cathepsin B solution (379 U/mL, Enzo Life Sciences) was added. The vial was returned to the heating block at 37 C and protected from direct light. 25 μL aliquots of the reaction mixture were removed at 0 min, 20 min, 40 min, 60 min, 120 min, and 180 min and analyzed by LC-MS. LC-MS peaks were integrated using Agilent OpenLab ChemStation and the areas of each peak were normalized to 1-napthalene acetic acid at 280 nM. Percent drug-linker remaining is defined as the normalized peak area at a given time point divided by the normalized peak area at 0 hours×100% (FIG. 2A). A similar procedure was used for the release assay of 39, using glucuronidase instead of cathepsin B (FIG. 2B).
# [3] = tested on: Ramos cells (B lymphocyte cells); experiment: Growth inhibition of Ramos cells; type: cell-based; details: Homo sapiens
# Experimental: as §3, §4, §5
# [4] = patients with metastatic cancer; only problematic at doses beyond those which affected tumor volume decrease; cited from earlier work
# [5] = MES-SA/Dx5, MES-SA/Dx-5 cells, 72 h incubation, read-out: GI50
compound,measurement,setting,value
COc1c2c(c(O)c3c4c(c(C)cc13)C1OC3(CO)OC1[C@@](OC)(O4)[C@@]31CO1)C(=O)CCC2 (stereo partly drawn) [TP-1],GI50,"MES-SA/Dx-5 cells; MES-SA/Dx5, 72 h",8 nM
COc1c2c(c(O)c3c4c(c(C)cc13)C1OC3(COCc5ccccc5)OC1[C@@](O)(O4)[C@@]31CO1)C(=O)CCC2 (stereo partly drawn) [TP-4],GI50,MES-SA/Dx-5 cells; [5],> 100 nM
CCCOCC12OC3c4c(C)cc5c(OC)c6c(c(O)c5c4O[C@](OC)(C3O1)[C@@]21CO1)C(=O)CCC6 (stereo partly drawn) [TP-5],GI50,MES-SA/Dx-5 cells; [5],25 nM
C=CCOCC12OC3c4c(C)cc5c(OC)c6c(c(O)c5c4O[C@](OC)(C3O1)[C@@]21CO1)C(=O)CCC6 (stereo partly drawn) [TP-6],GI50,MES-SA/Dx-5 cells; [5],17 nM
C#CCOCC12OC3c4c(C)cc5c(OC)c6c(c(O)c5c4O[C@](OC)(C3O1)[C@@]21CO1)C(=O)CCC6 (stereo partly drawn) [TP-7],GI50,"MES-SA/Dx-5 cells; MES-SA/Dx5, 72 h",15 nM
COc1c2c(c(O)c3c4c(c(C)cc13)C1OC3(CN=[N+]=[N-])OC1[C@@](OC)(O4)[C@@]31CO1)C(=O)CCC2 (stereo partly drawn) [TP-9],GI50,"MES-SA/Dx-5 cells; MES-SA/Dx5, 72 h",33 nM
COc1c2c(c(O)c3c4c(c(C)cc13)C1OC3(COC5CC(C)(O)C(OC(C)=O)C(C)O5)OC1[C@@](OC)(O4)[C@@]31CO1)C(=O)CCC2 (stereo partly drawn) [TP-12],GI50,"MES-SA/Dx-5 cells; MES-SA/Dx5, 72 h",50 nM
"COc1c2c(c(O)c3c4c(c(C)cc13)C1OC3(CS)OC1[C@@](OC)(O4)[C@@]31CO1)C(=O)CCC2 (stereo partly drawn) [compound 34, (25,2'S,3a′R,13a′R)-12′-hydroxy-2′-(mercaptomethyl)-7′,13a′-dimethoxy-5′-methyl-3a′, 4′,8′,9′,10′,13a′-hexahydro-2′H,11′H-spiro [oxirane-2,1′-[2,4]epoxyfuro[3,2-b]naphtho[2,3-h]chromen]-11′-one]",Decomposition of the unprotected thiol,[1],"rapid, non-productive, decomposition pathway"
same,GI50,H460 cells,> 100 nM
same,Effect of the C16 modification on potency (in words),H460 cells,lack of activity
"COc1c2c(c(O)c3c4c(c(C)cc13)[C@@H]1O[C@]3(COP(=O)(O)O)O[C@@H]1[C@@](OC)(O4)[C@@]31CO1)C(=O)CCC2 [compound 35, ((2R,2′R,3a'S,4'S,13a′R)-12′-hydroxy-7′,13a′-dimethoxy-5′-methyl-11′-oxo-3a′,8′,9′,10′,11′,13a′-hexahydro-2′H,4′H-spiro [oxirane-2,1′-[2,4]epoxyfuro[3,2-b]naphtho[2,3-h]chromen]-2′-yl)methyl dihydrogen phosphate]",GI50,H460 cells,35 nM
same,Effect of the C16 modification on potency (in words),H460 cells,good tolerance
"COc1c2c(c(O)c3c4c(c(C)cc13)[C@@H]1O[C@]3(CNC(=O)OCc5ccc(O[C@@H]6O[C@H](C(=O)O)[C@@H](O)[C@H](O)[C@H]6O)c(-n6cc(COCCOCCOCCOCCN7C(=O)C=CC7=O)nn6)c5)O[C@H]1[C@@](OC)(O4)[C@@]31CO1)C(=O)CCC2 [compound 39, (2S,3S,4S,5R,6S)-6-(2-(4-(13-(2,5-Dioxo-2,5-dihydro-1H-pyrrol-1-yl)-2,5,8,11-tetraoxatridecyl)-1H-1,2,3-triazol-1-yl)-4-((((((2R,2′R,3a′R,4'S,13a′R)-12′-hydroxy-7′,13a′-dimethoxy-5′-methyl-11′-oxo-3a′,8′,9′,10′,11′,13a′-hexahydro-2′H, 4′H-spiro [oxirane-2,1′-[2.4]epoxyfuro[3,2-b]naphtho[2,3-h]chromen]-2′-yl)methyl)carbamoyl)oxy)methyl)phenoxy)-3,4,5-trihydroxytetrahydro-2H-pyran-2-carboxylic acid]",Percent drug-linker remaining,[2],75%
"COc1c2c(c(O)c3c4c(c(C)cc13)[C@H]1O[C@]3(CNC(=O)OCc5ccc(NC(=O)[C@H](C)NC(=O)[C@@H](NC(=O)CCOCCOCCOCCOCCN6C(=O)C=CC6=O)C(C)C)cc5)O[C@@H]1C(OC)(O4)[C@@]31CO1)C(=O)CCC2 (stereo partly drawn) [compound 42, 4-((17S,20S)-1-(2,5-dioxo-2,5-dihydro-1H-pyrrol-1-yl)-17-isopropyl-20-methyl-15,18-dioxo-3,6,9,12-tetraoxa-16,19-diazahenicosan-21-amido)benzyl (((2R,2′R,3a'S,4′R)-12′-hydroxy-7′,13a′-dimethoxy-5′-methyl-11′-oxo-3a′,8′,9′,10′, 11′, 13a′-hexahydro-2′H,4′H-spiro [oxirane-2,1′-[2,4]epoxyfuro[3,2-b]naphtho[2,3-h]chromen]-2′-yl)methyl)carbamate]",Percent drug-linker remaining,[2],75%
same,half-life at 100 µM,cathepsin B,~15 min
"COCC12OC3c4c(C)cc5c(OC)c6c(c(O)c5c4O[C@](OC)(C3O1)[C@@]21CO1)C(=O)CCC6 (stereo partly drawn) [compound 43, (2R,2′R,3a′R,4'S, 13a′R)-12′-hydroxy-7′, 13a′-dimethoxy-2′-(methoxymethyl)-5′-methyl-3a′ 4′,8′,9′,10′,13a′-hexahydro-2′H, 11′H-spiro[oxirane-2,1′-[2,4]epoxyfuro[3,2-b]naphtho[2,3-h]chromen]-11′-one]",GI50,[3],2.6 ± 0.8 nM
"COc1c2c(c(O)c3c4c(c(C)cc13)C1OC3(C)OC1[C@@](OC)(O4)[C@@]31CO1)C(=O)CCC2 (stereo partly drawn) [compound 45, (2R,2′R,3a'S,4'S)-12′-hydroxy-7′,13a′-dimethoxy-2′,5′-dimethyl-3a′ 4′,8′,9′,10′,13a′-hexahydro-2′H,11′H-spiro [oxirane-2,1′-[2,4]epoxyfuro[3,2-b]naphtho[2,3-h]chromen]-11′-one]",GI50,[3],20 ± 5 nM
LL-D49194a1,Dose-limiting toxicity,[4],pancarditis was the only significant dose-limiting toxicity
